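These data come from cells grown in 96-well plates and exposed to compound for 48 hours at five concentrations. TGI marks complete inhibition of growth.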
Assays:
Experiment in all cases: NCI tumour cell line growth inhibition, 48 h
[1] = test system: ACHN renal
[2] = test system: BT-549 breast
[3] = test system: HCC-2998 colon
[4] = test system: MOLT-4 leukemia
[5] = test system: EKVX NSCLC
[6] = test system: KM12 colon
[7] = test system: A498 renal
[8] = test system: UACC-62 melanoma
[9] = test system: CAKI-1 renal
[10] = test system: TK-10 renal
[11] = test system: RPMI-8226 leukemia
[12] = test system: HS 578T breast
[13] = test system: HL-60(TB) leukemia
[14] = test system: MDA-MB-435
[15] = test system: U251 CNS
[16] = test system: NCI-H23 lung
[17] = test system: UACC-257 melanoma
[18] = test system: SK-MEL-5 melanoma
[19] = test system: HT29 colon
[20] = test system: SK-OV-3 ovarian
[21] = test system: SW-620 colon
[22] = test system: OVCAR-3 ovarian
[23] = test system: SR leukemia
[24] = test system: MDA-MB-231 breast
[25] = test system: HCT-15 colon
[26] = test system: NCI-H226 lung
[27] = test system: NCI/ADR-RES ovarian
[28] = test system: IGROV1 ovarian
[29] = test system: NCI-H522 lung
[30] = test system: SF-295 CNS
[31] = test system: NCI-H460 lung
[32] = test system: MALME-3M melanoma
[33] = test system: COLO 205 colon
[34] = test system: OVCAR-4 ovarian
[35] = test system: SNB-19 CNS
[36] = test system: SK-MEL-2 melanoma
[37] = test system: DU-145 prostate
[38] = test system: OVCAR-5 ovarian
[39] = test system: PC-3 prostate
[40] = test system: HOP-92 NSCLC
[41] = test system: SN12C renal
[42] = test system: 786-0 renal
[43] = test system: LOX IMVI melanoma
[44] = test system: M14 melanoma
[45] = test system: MCF7 breast
[46] = test system: CCRF-CEM leukemia
[47] = test system: SK-MEL-28 melanoma
[48] = test system: SF-539 CNS
[49] = test system: K-562 leukemia
[50] = test system: HOP-62 NSCLC
[51] = test system: UO-31 renal
[52] = test system: RXF 393 renal
[53] = test system: HCT-116 colon
[54] = test system: OVCAR-8 ovarian
[55] = test system: SF-268 CNS
[56] = test system: A549 NSCLC
[57] = test system: SNB-75 CNS
[58] = test system: T-47D breast

Measured: TGI

NC(Cc1[nH]nc2ccccc12)C(=O)O (stereo not drawn)
> 100 µM: all assays above
